# Experimental data taken from US11293023B2, “Tunable endogenous protein degradation” (Dana-Farber Cancer Institute, Inc., priority 2015, dated 2022).
# Legend:
# Assay type in all cases: cell-based
# FKBP* fused to Nluc = target: T1, FKBP* fused to Nluc (Homo sapiens, UniProt P62942+Q96SW2, F37V); assay: Nluc/Fluc luciferase signal ratio assay of FKBP* degradation in 293FT cells; conditions: wild type or CRBN−/− 293FT cells, indicated concentrations, 4 hours
# T1 construct: expressed in transfected cells; host or cells: 293FT cells (wild type or CRBN-/-)
# Procedure: FIG. 5A and FIG. 5B are graphs measuring the activity of a panel of dFKBP heterobifunctional compounds in cells expressing FKBP* fused to Nluc. Degradation of FKBP* is measured as a signal ration (Nluc/Fluc) between NANOluc and firefly luciferase from the same multicistronic transcript in wild type (FIG. 7A) or CRBN−/− ([…]) 293FT cells treated with indicated concentrations of dFKBPs for 4 hours. A decrease in the signal ratio indicates FKBP* (Nluc) degradation.
# In an effort to identify potent and selective dFKPB heterobifunctional compounds, high throughput measurements of targeted FKBP* degradation were measured by surrogate levels of luciferase. Here, FKBP* is exogenously expressed as a multicistronic transcript with two types of luciferase: nano luciferase (NLuc) and firefly luciferase (FLuc) that allow for cell normalized quantification of FKBP* protein levels. Degradation of FKBP* is measured as a signal ration (Nluc/Fluc) in wild type (FIG. 4A) or CRBN−/− (FIG. 4B) 293FT cells treated with indicated concentrations of dFKBPs for 4 hours.
# FKBP12WT = target: T2, FKBP12WT (Homo sapiens, UniProt P62942); assay: Immunoblot of wild type FKBP12 in 293FT cells (selectivity control); conditions: 293FT CRBN-WT or CRBN−/−, indicated concentrations, 4 hours
# T2 construct: expressed in transfected cells; host or cells: 293FT cells (CRBN-WT or CRBN-/-)
# Procedure: 293FT cells (CRBN-WT or CRBN−/−) expressing either HA-tagged FKBP12WT or FKBP* were treated with indicated concentrations of dFKBP7 for 4 hours.
# Isogenic 293FT cells (CRBN-WT or CRBN−/−) expressing either FKBP12WT or FKBP* were treated with 100 nM of either dFKBP7 or dFKBP13 for 4 hours.
# The dTAG is predicated on the selectivity of FKBP* specific ligands over endogenous, wild type FKBP. […] 293FT cells (CRBN-WT or CRBN−/−) expressing either HA-tagged FKBP12WT or FKBP* were treated with indicated concentrations of dFKBP7 for 4 hours.
# Isogenic 293FT cells (CRBN-WT or CRBN−/−) were engineered to expressed either FKBP12WT or FKBP*. Cells were treated with 100 nM of either dFKBP7 or dFKBP13 for 4 hours before lysates were prepared for western immunoblot analysis.
# [1] = test system: dTAG-KRAS alleles (WT, G12C, G12D, G12V, G13D, Q61L, Q61R); assay: Immunoblot of dTAG-KRAS WT and mutant alleles in NIH3T3 cells; conditions: 1 uM, 24 hours
# Procedure: FIG. 16 is an immunoblot of NIH3T3 cells expressing KRAS alleles either WT or mutant forms of amino acid glycine 12 (G12C, G12D, and G12V) treated with 1 uM of dFKBP13 for 24 hours.
# FIG. 17 is an immunoblot of NIH3T3 cells expressing either WT or mutant KRAS alleles (G13D, Q61L, and Q61R) treated with 1 uM of dFKBP13 for 24 hours.
# (§1) The dFKBP13 heterobifunctional compound potently degrades dTAG-KRAS mutant alleles. NIH3T3 cells were engineered to express KRAS alleles either WT or mutant forms of amino acid glycine 12 (G12C, G12D, and G12V). Western blotting of NIH3T3 cells expressing dTAG fused to the N-terminus of KRAS alleles were treated with 1 uM of dFKBP13 for 24 hours. Cells were harvested and immunoblotted to measure degradation of dTAG-KRAS and downstream surrogates of KRAS signaling (e.g. pMEK and pAKT).
# as §1, with “express” for “express KRAS alleles”, “KRAS alleles (G13D, Q61L,” for “forms of amino acid glycine 12 (G12C, G12D,”, “Q61R).” for “G12V).”
# [2] = test system: NIH3T3 cells expressing FKBP*-KRASG12V; assay: Phase contrast imaging of NIH3T3 cells expressing dTAG-KRAS; conditions: NIH3T3 overexpressing dTAG-KRAS, 24 hours
# Procedure: FIG. 18A, FIG. 18B, FIG. 18C, and FIG. 18D are panels of phase contrast images of control NIH3T3 cells or NIH3T3 expressing FKBP* fused to the N-terminus of KRASG12V treated with DMSO of dFKBP13 for 24 hours.
# T2 sequence (P62942 whole entry): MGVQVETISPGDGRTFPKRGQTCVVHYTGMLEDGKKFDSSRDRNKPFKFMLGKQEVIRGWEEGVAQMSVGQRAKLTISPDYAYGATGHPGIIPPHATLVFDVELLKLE
# T1 sequence (P62942 2-108 F37V limits assumed): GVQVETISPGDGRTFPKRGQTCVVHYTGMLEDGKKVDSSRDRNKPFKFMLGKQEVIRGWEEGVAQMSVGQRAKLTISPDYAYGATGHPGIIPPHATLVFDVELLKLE
# T1 sequence (Q96SW2 whole entry, the tested form may be a part): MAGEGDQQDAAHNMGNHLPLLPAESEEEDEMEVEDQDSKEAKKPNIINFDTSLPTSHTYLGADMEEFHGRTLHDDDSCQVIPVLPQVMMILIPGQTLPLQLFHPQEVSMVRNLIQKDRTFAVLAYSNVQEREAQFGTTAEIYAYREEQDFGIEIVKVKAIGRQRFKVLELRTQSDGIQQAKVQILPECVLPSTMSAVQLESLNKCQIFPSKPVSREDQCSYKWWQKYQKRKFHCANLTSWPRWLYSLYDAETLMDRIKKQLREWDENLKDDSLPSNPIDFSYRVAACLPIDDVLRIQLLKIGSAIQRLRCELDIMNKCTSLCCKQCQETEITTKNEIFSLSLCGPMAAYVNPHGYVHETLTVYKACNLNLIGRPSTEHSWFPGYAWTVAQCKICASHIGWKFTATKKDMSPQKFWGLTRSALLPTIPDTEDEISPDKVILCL
# T1 sequence (Q16531 whole entry partner, the tested form may be a part): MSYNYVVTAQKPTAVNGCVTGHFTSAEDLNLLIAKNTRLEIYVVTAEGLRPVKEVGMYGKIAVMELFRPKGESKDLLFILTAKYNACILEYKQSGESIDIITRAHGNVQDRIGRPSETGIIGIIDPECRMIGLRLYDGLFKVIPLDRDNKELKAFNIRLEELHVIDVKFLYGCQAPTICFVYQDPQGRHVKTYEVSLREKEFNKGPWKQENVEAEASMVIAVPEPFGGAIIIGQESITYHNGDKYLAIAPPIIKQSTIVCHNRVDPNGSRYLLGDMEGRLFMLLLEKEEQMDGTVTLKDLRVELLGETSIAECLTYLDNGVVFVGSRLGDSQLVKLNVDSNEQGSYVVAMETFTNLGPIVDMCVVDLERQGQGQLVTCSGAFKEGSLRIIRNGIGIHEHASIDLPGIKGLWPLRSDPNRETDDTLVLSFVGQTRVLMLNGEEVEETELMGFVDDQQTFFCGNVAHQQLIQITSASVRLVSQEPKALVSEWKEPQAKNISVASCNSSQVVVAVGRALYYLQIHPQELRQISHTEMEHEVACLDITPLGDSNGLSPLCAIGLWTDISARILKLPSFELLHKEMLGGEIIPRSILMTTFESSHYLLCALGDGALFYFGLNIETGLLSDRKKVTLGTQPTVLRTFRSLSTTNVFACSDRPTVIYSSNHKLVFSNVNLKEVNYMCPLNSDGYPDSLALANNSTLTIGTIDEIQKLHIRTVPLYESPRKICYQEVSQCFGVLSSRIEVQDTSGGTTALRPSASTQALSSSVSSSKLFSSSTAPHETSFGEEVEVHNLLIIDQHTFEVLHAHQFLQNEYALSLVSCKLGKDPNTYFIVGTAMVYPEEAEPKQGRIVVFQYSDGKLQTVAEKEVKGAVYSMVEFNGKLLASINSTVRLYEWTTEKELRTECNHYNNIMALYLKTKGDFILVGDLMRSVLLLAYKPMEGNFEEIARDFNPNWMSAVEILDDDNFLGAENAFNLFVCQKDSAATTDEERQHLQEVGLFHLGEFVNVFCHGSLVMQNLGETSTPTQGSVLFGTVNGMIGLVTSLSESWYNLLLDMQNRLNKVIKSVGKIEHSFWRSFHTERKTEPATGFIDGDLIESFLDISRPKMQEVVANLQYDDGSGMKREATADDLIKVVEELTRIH
Structure (SMILES),FKBP* degradation as signal ratio (Nluc/Fluc) (FKBP* fused to Nluc),degradation of HA-tagged FKBP12WT (FKBP12WT),"degradation of dTAG-KRAS alleles ([1]; G12C, G12D, G12V)","degradation of dTAG-KRAS alleles ([1]; G13D, Q61L, Q61R)",cell morphology [2]
CC[C@H](C(=O)N1CCCC[C@H]1C(=O)O[C@H](CCc1ccc(OC)c(OC)c1)c1cccc(OCC(=O)NCCCOCCOCCOCCCNC(=O)COc2cccc3c2C(=O)N(C2CCC(=O)NC2=O)C3=O)c1)c1cc(OC)c(OC)c(OC)c1 (some centres unmarked) [dFKBP7],effectively degrade FKBP* in a cereblon dependent manner,not FKBPWT,–,–,–
CC[C@H](C(=O)N1CCCC[C@H]1C(=O)O[C@H](CCc1ccc(OC)c(OC)c1)c1cccc(OCC(=O)NCCCCCCOc2cccc3c2C(=O)N(C2CCC(=O)NC2=O)C3=O)c1)c1cc(OC)c(OC)c(OC)c1 (some centres unmarked) [dFKBP13],–,–,potent degradation of WT and mutant KRAS alleles,potent degradation of WT and mutant KRAS alleles,morphologically revert back to the wild type (DMSO control) state
